Test results reported in the supplement of paper PMC10331698.
± gives the standard deviation of the averaged measurements.

What was measured:
Assay in all cases: level (log10 ratio to DMSO vehicle control); higher = higher biomarker level / cell amount than vehicle control
Conditions in all cases: in DMSO
[1] = compound: C=CC(=O)OCC(F)(F)C(F)(F)C(F)(F)C(F)(F)C(F)(F)C(F)(F)C(F)(F)F [1H,1H-Perfluorooctyl acrylate]
Procedure: (§1)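 BioMAP Diversity Plus panel of 12 human primary cell co-culture systems (3C, 4H, LPS, SAg, BT, BF4T, BE3C, CASM3C, HDF3CGF, KF3CT, MyoF, Mphg). Compounds were added 1 h before stimulation and left for 24 h (MyoF 48 h; BT 72 h for soluble read-outs or 6 d for IgG). Biomarkers were read by ELISA, cytotoxicity by SRB, PBMC viability and proliferation by Alamar Blue. Each well value was divided by the mean of 8 DMSO control wells on the same plate and log10 transformed; duplicate blinded samples were tested at 4 concentrations.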

[2] = compound: C=C(C)C(=O)OCCC(F)(F)C(F)(F)C(F)(F)C(F)(F)C(F)(C(F)(F)F)C(F)(F)F [(Perfluoro-5-methylhexyl)ethyl 2-methylprop-2-enoate]
Procedure: as §1

[3] = compound: O=C(O)C(F)(F)C(F)(F)C(F)(F)C(F)(F)C(F)(F)C(F)(F)C(F)(F)C(F)F [9-H-Perfluorononanoic acid]
Procedure: as §1

[4] = compound: O=C(O)C(F)(F)OC(F)(F)C(F)(F)OC(F)(F)C(=O)O [Perfluoro-3,6-dioxaoctane-1,8-dioic acid]
Procedure: as §1

[5] = compound: O=S(=O)(O)C(F)(F)C(F)(F)C(F)(F)C(F)(F)C(F)(F)C(F)(F)F [Perfluorohexanesulfonic acid]
Procedure: as §1

[6] = compound: C=CC(F)(F)C(F)(F)C(F)(F)C(F)(F)C(F)(F)C(F)(F)C(F)(F)C(F)(F)C=C [1,8-Divinylperfluorooctane]
Procedure: as §1

[7] = compound: NC(=O)C(F)(F)C(F)(F)F [Pentafluoropropionamide]
Procedure: as §1

| Test System | level (log10) ([1]; 6700 nM) | level (log10) ([1]; 20000 nM) | level (log10) ([1]; 60000 nM) | level (log10) ([2]; 6700 nM) | level (log10) ([2]; 20000 nM) | level (log10) ([3]; 6700 nM) | level (log10) ([3]; 20000 nM) | level (log10) ([3]; 60000 nM) | level (log10) ([4]; 6700 nM) | level (log10) ([4]; 20000 nM) | level (log10) ([4]; 60000 nM) | level (log10) ([5]; 6700 nM) | level (log10) ([5]; 20000 nM) | level (log10) ([5]; 60000 nM) | level (log10) ([6]; 6700 nM) | level (log10) ([6]; 20000 nM) | level (log10) ([7]; 6700 nM) | level (log10) ([7]; 20000 nM) | level (log10) ([7]; 60000 nM) |
| --- | --- | --- | --- | --- | --- | --- | --- | --- | --- | --- | --- | --- | --- | --- | --- | --- | --- | --- | --- |
| 3C:CD62E/E-Selectin | -0.001 ± 0.0071 | -0.006 ± 0.0099 | 0.0035 ± 0.013 | -0.0095 ± 0.018 | -0.0175 ± 0.0021 | -0.009 ± 0.014 | -0.0145 ± 0.0092 | 0.006 ± 0.025 | 0.0015 ± 0.029 | -0.0185 ± 0.0092 | -0.005 ± 0.02 | -0.0075 ± 0.011 | 0.012 ± 0.0042 | 0.0685 ± 0.018 | -0.0305 ± 0.025 | -0.014 ± 0.024 | -0.0075 ± 0.0078 | -0.005 ± 0.011 | 0.005 ± 0.018 |
| CASM3C:CCL2/MCP-1 | -0.0035 ± 0.0078 | -0.0095 ± 0.0035 | -0.004 ± 0.0071 | 0.002 ± 0.023 | 0.0105 ± 0.005 | 0.0125 ± 0.0092 | -0.0015 ± 0.00071 | 0.017 ± 0.0071 | -0.033 ± 0.037 | -0.034 ± 0.027 | 0.021 ± 0.02 | -0.0215 ± 0.018 | -0.013 ± 0.0085 | 0.0035 ± 0.00071 | -0.0225 ± 0.0078 | 0.002 ± 0.014 | -0.003 ± 0.021 | -0.01 ± 0.0014 | 0.0075 ± 0.013 |
| BE3C:tPA | 0.005 ± 0.0028 | 0.0125 ± 0.00071 | 0.0605 ± 0.022 | -0.0245 ± 0.00071 | -0.0325 ± 0.021 | 0.075 ± 0.023 | 0.0285 ± 0.019 | 0.002 ± 0.025 | -0.014 ± 0.018 | -0.0135 ± 0.0035 | -0.0015 ± 0.0021 | -0.0105 ± 0.0064 | 0.0015 ± 0.0035 | 0.012 ± 0.0014 | -0.0145 ± 0.0021 | -0.0015 ± 0.015 | -0.0055 ± 0.012 | -0.001 ± 0.018 | 0.003 ± 0.02 |
| CASM3C:CXCL9/MIG | 0.001 ± 0.0028 | -0.0015 ± 0.011 | 0.0005 ± 0.0035 | 0.0335 ± 0.029 | 0.0445 ± 0.046 | -0.024 ± 0.017 | -0.0155 ± 0.0092 | 0.0205 ± 0.00071 | -0.002 ± 0.0057 | -0.011 ± 0.013 | 0.03 ± 0.047 | 0.003 ± 0.0099 | 0.0045 ± 0.0064 | 0.012 ± 0.0014 | -0.013 ± 0.0085 | -0.0115 ± 0.011 | 0 ± 0.0014 | -0.0035 ± 0.005 | -0.008 ± 0.0042 |
| KF3CT:CCL2/MCP-1 | -0.0195 ± 0.022 | -0.0195 ± 0.0021 | -0.016 ± 0.011 | -0.0235 ± 0.0092 | -0.0125 ± 0.037 | -0.04 ± 0.0028 | -0.0335 ± 0.0078 | 0.009 ± 0.065 | -0.0135 ± 0.016 | -0.011 ± 0.0057 | -0.0045 ± 0.013 | 0.0075 ± 0.032 | -0.001 ± 0.013 | 0.0205 ± 0.023 | -0.0165 ± 0.016 | 0.009 ± 0.042 | -0.0205 ± 0.015 | -0.0285 ± 0.023 | 0.0155 ± 0.071 |
| CASM3C:CD87/uPAR | 0.0095 ± 0.028 | 0.0135 ± 0.021 | 0.0235 ± 0.019 | -0.0305 ± 0.013 | -0.035 | -0.001 ± 0.014 | 0.0045 ± 0.011 | 0.029 ± 0.0057 | -0.023 ± 0.03 | -0.023 ± 0.018 | -0.0255 ± 0.00071 | 0.007 ± 0.0014 | 0.001 ± 0.0057 | 0.0065 ± 0.012 | -0.002 ± 0.014 | 0.0175 ± 0.0035 | -0.031 ± 0.05 | -0.012 ± 0.0071 | -0.019 ± 0.03 |
| lMphg:CXCL8/IL-8 | 0.0185 ± 0.005 | 0.029 ± 0.0071 | 0.0295 ± 0.005 | -0.0035 ± 0.011 | 0.006 ± 0.0028 | 0.033 ± 0.021 | 0.0415 ± 0.019 | 0.112 ± 0.0014 | -0.024 ± 0.027 | 0 ± 0.068 | -0.002 ± 0.085 | 0.029 ± 0.11 | 0.052 ± 0.088 | 0.169 ± 0.18 | 0.0055 ± 0.026 | 0.0125 ± 0.064 | 0.007 ± 0.0071 | 0.001 ± 0.04 | -0.004 ± 0.013 |
| KF3CT:CXCL9/MIG | 0.005 ± 0.0042 | -0.0035 ± 0.0035 | 0.008 ± 0.0099 | 0.018 ± 0.014 | 0.0215 ± 0.023 | -0.008 ± 0.0042 | -0.009 ± 0.0028 | -0.0045 ± 0.00071 | -0.0035 ± 0.0092 | 0.0065 ± 0.0078 | 0.017 ± 0.0099 | 0.001 ± 0.021 | 0.002 ± 0.0071 | 0.013 ± 0.013 | -0.002 ± 0.0042 | -0.0015 ± 0.011 | 0.0055 ± 0.013 | -0.0015 ± 0.0035 | -0.0085 ± 0.012 |
